Columns and labels:
[1] = target: 4-hydroxyphenylpyruvate dioxygenase (Rattus norvegicus, UniProt P32755); test: Inhibition of rat 4-hydroxyphenylpyruvate dioxygenase
[2] = Inhibition of Arabidopsis 4-hydroxyphenylpyruvate dioxygenase
[3] = Inhibition of anthranilate synthase

Sequence of 4-hydroxyphenylpyruvate dioxygenase (P32755 whole entry): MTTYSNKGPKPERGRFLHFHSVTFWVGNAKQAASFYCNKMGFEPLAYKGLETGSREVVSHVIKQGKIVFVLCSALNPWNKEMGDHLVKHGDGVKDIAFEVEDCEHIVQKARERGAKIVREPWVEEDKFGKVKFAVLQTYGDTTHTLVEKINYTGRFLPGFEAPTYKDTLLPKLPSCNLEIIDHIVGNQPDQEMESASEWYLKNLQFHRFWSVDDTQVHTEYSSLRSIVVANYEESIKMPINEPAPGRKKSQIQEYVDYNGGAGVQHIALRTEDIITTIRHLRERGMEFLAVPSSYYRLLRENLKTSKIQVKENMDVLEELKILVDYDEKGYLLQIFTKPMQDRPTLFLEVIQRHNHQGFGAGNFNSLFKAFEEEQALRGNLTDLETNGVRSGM

| Structure (SMILES) | IC50 [1] | IC50 [2] | IC50 [3] |
| --- | --- | --- | --- |
| O=C(NCCCCC1C(=O)/C(=C(\O)C2CC2)C(=O)N1Cc1ccc(F)cc1)c1ccc(Cl)nc1 (stereo unspecified) | 3.9 µM | 0.02 µM | – |
| O=C(NCCCCC1C(=O)/C(=C(\O)C2CCC2)C(=O)N1Cc1ccccc1)Nc1cccc(Cl)c1 (stereo unspecified) | ≥ 10 µM | 0.158 µM | – |
| O=C(O)c1cccc(/C(=N/OCCc2ccc(Cl)cc2)c2cccc(C(F)(F)F)c2)c1 | – | – | 3.2 µM |
| O=C(O)COc1ccccc1/C=N/OCc1cc(Cl)ccc1Cl | – | – | 3.2 µM |

Source: ChEMBL document CHEMBL1137757, “Combinatorial chemistry in the agrosciences” (Bioorg Med Chem, 2009)
